According to patent US20190169221A1, “SUBSTITUTED NUCLEOSIDES, NUCLEOTIDES AND ANALOGS THEREOF” (Janssen BioPharma, Inc., priority 2016, published 2019):

Assays:
Human rhinovirus 75 = assay: Enterovirus assay, HRV 75 (HeLa-OHIO cells); assay type: cell-based; conditions: Rhinovirus A
Procedure: (§1) HeLa OHIO cells were purchased from Sigma Aldrich (St Louis, Mo.) and cultured in MEM with Glutamax (Gibco cat. #41090) supplemented with 10% FBS (Mediatech cat. #35-011-CV) and 1% penicillin/streptomycin (Mediatech cat. #30-002-CI), at 37° C. with 5% CO2. RD cells were purchased from ATCC (Manassas, Va.) and cultured in DMEM, supplemented with 10% FBS (Mediatech cat. #35-011-CV) and 1% penicillin/streptomycin (Mediatech cat. #30-002-CI), at 37° C. with 5% CO2. For […]68 and CVB3, HeLa-OHIO cells were plated at a density of 1.5×10^5 cells per mL (1.5×10^4 cells per well) in assay media (MEM without phenol red or L-glutamine (Gibco cat. #51200) supplemented with 1% FBS, 1% penicillin/streptomycin (Mediatech cat. #30-002-CI) and 1% Glutamax (Gibco cat. #35050)) in clear-bottom 96 well plates. For EV71, RD cells were plated at a density of 5×10^4 cells per mL (5000 cells per well) in assay media (DMEM supplemented with 2% FBS and 1% penicillin/streptomycin). After 24 h, media was removed and replaced with serially diluted compounds in assay media. […] After 2-6 days, cell viability was measured using CellTiter Glo Luminescent Cell Viability Assay (Promega cat. #G7572). […] Plates were incubated at R.T. for 5 mins, then luminescence was measured using a Perkin Elmer multilabel counter Victor3V. EC50 values were determined using XLFit.

EV71 = assay: Enterovirus assay, EV71 (RD cells); assay type: cell-based; conditions: Enterovirus A, 37° C.
Procedure: HeLa OHIO cells were purchased from Sigma Aldrich (St Louis, Mo.) and cultured in MEM with Glutamax (Gibco cat. #41090) supplemented with 10% FBS (Mediatech cat. #35-011-CV) and 1% penicillin/streptomycin (Mediatech cat. #30-002-CI), at 37° C. with 5% CO2. RD cells were purchased from ATCC (Manassas, Va.) and cultured in DMEM, supplemented with 10% FBS (Mediatech cat. #35-011-CV) and 1% penicillin/streptomycin (Mediatech cat. #30-002-CI), at 37° C. with 5% CO2. For […]68 and CVB3, HeLa-OHIO cells were plated at a density of 1.5×10^5 cells per mL (1.5×10^4 cells per well) in assay media (MEM without phenol red or L-glutamine (Gibco cat. #51200) supplemented with 1% FBS, 1% penicillin/streptomycin (Mediatech cat. #30-002-CI) and 1% Glutamax (Gibco cat. #35050)) in clear-bottom 96 well plates. For EV71, RD cells were plated at a density of 5×10^4 cells per mL (5000 cells per well) in assay media (DMEM supplemented with 2% FBS and 1% penicillin/streptomycin). After 24 h, media was removed and replaced with serially diluted compounds in assay media. For EC50 measurements, cells were infected in 100 μL assay media with a virus inoculum sufficient to obtain to cause 80-90% cytopathic effect. After 2-6 days, cell viability was measured using CellTiter Glo Luminescent Cell Viability Assay (Promega cat. #G7572). Cells infected with EV-71, EV-68 and CVB3 were cultured at 37° C., while cells infected with hV1b, hV-16, hV-75 were cultured at 33° C. 100 μL media was removed from each well and 100 μL CellTiter Glo reagent was added. Plates were incubated at R.T. for 5 mins, then luminescence was measured using a Perkin Elmer multilabel counter Victor3V. EC50 values were determined using XLFit.

CVB3 = assay: Enterovirus assay, CVB3 (HeLa-OHIO cells); assay type: cell-based, Coxsackie virus 3B; conditions: Enterovirus B, 37° C.
Procedure: as §1

Zika virus = assay: Zika viral assay (cytopathic effect, Huh-7.5 cells); assay type: cell-based; conditions: Huh7.5, read-out: Zika EC50
Procedure: (§2) The Dengue virus type 2 strain New Guinea C (NG-C) and the Dengue virus type 4 strain H241 were purchased from ATCC (Manassas, Va.; item numbers VR-1584 and VR-1490, respectively). The Zika virus strain MR766 was purchased from ATCC (item #VR-1838) and the Zika virus strain IbH 30656 was purchased from BEI Resources (Manassas, Va.; item number NR-500066). 24 h prior to dosing, Huh-7.5 cells were plated in 96 well plates at a density of 1.5×10^5/mL in DMEM medium supplemented with 10% fetal bovine serum, 1% HEPES buffer, 1% Penicillin/Streptomycin and 1% non-essential amino acids (all Mediatech, Manassas, Va.). At the day of infection, serially diluted compounds were added to cells and incubated for 24 h. After the end of the 24 h pre-incubation period, cells were infected with either Dengue virus type 2 NG-C, Dengue virus type 4 H241, Zika virus strain MR766 or Zika virus strain IbH 30656. The virus inoculum was selected to cause 80-90% cytopathic effect in four (Zika) to five (Dengue) days. Infected cells were incubated for four to five days at 37° C., 5% CO2. To develop the assay, 100 μL media was replaced with 100 μl CellTiter-Glo® reagent (Promega, Madison, Wis.) and incubated for 10 mins at R.T. Luminescence was measured on a Victor ×3 multi-label plate reader. Potential compound cytotoxicity was determined using uninfected parallel cultures.

Human rhinovirus 1B = assay: Picornavirus / enterovirus assay, HRV 1B (HeLa-OHIO cells); assay type: cell-based; conditions: Rhinovirus A; HeLa-OHIO cells, 33° C.; read-out: HRV 1B EC50
Human rhinovirus 16 = assay: Enterovirus assay, HRV 16 (HeLa-OHIO cells); assay type: cell-based; conditions: Rhinovirus A
Procedure: as §1

[1] = test system: Huh-7 cells containing the self-replicating, subgenomic HCV replicon; assay: HCV replicon assay; assay type: cell-based; conditions: Hepatitis C virus; Huh-7 replicon cells, 72 h, luciferase
[2] = test system: Dengue virus type 2 strain New Guinea C (NG-C); assay: Dengue viral assay (cytopathic effect, Huh-7.5 cells); assay type: cell-based; conditions: Huh7.5, Dengue virus type 2 (NG-C strain), read-out: Dengue NGC EC50
Procedure: as §2

Human rhinovirus 14 = assay: Enterovirus assay, HRV 14 (HeLa-OHIO cells); assay type: cell-based; conditions: Rhinovirus B
[3] = target: human rhinovirus 16 polymerase (HRV16pol) (Human rhinovirus 16, UniProt Q82122); assay: Picornavirus polymerase inhibition assay; assay type: biochemical; conditions: triphosphates, read-out: Viral Polymerase Inhibition IC50 Picornavirus
Procedure: The enzyme activity of human rhinovirus 16 polymerase (HRV16pol) was measured as an incorporation of tritiated NMP into acid-insoluble RNA products. hV16pol assay reactions contained […] recombinant enzyme, 50 nM heteropolymeric RNA, about 0.5 μCi tritiated NTP, 0.1 mM of competing cold NTP, 40 mM Tris-HCl (pH 7.0), […] dithiothreitol and 0.5 mM MgCl2. Standard reactions were incubated for 2.5 h at 30° C., in the presence of increasing concentration of inhibitor. At the end of the reaction, RNA was precipitated with 10% TCA and acid-insoluble RNA products were filtered on a size exclusion 96-well plate. After washing of the plate, scintillation liquid was added and radiolabeled RNA products were detected using standard procedures with a Trilux Microbeta scintillation counter. The compound concentration at which the enzyme-catalyzed rate was reduced by 50% (IC50) was calculated by fitting the data to a non-linear regression (sigmoidal).

Dengue viral polymerase = Dengue viral polymerase (Dengue virus type 2, UniProt P14340); assay: biochemical; conditions: triphosphates; read-out: Viral Polymerase Inhibition IC50 Dengue
NS5B-BK (Delta-21) = NS5B-BK (Delta-21) (Hepatitis C virus genotype 1b, UniProt P26663); assay: biochemical; parameters: species or system HCV
NS5B-BK (Delta-21), sequence (P26663 2420-2989 limits assumed): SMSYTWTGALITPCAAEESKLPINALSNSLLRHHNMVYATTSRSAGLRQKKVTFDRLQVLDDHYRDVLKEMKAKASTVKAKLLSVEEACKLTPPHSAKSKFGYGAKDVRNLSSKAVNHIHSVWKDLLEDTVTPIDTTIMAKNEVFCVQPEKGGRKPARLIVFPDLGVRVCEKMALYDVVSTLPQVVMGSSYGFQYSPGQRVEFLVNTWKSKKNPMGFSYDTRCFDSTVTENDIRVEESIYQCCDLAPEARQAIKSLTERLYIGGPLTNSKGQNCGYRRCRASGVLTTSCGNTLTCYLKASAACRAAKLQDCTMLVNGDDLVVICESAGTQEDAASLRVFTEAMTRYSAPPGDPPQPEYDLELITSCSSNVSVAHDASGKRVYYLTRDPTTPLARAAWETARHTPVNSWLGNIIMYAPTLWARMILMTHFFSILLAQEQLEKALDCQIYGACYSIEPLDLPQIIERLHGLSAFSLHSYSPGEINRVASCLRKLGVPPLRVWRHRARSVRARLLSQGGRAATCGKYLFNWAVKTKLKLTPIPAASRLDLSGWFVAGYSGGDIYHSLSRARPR

human rhinovirus 16 polymerase (HRV16pol), sequence (Q82122 1694-2153 limits assumed): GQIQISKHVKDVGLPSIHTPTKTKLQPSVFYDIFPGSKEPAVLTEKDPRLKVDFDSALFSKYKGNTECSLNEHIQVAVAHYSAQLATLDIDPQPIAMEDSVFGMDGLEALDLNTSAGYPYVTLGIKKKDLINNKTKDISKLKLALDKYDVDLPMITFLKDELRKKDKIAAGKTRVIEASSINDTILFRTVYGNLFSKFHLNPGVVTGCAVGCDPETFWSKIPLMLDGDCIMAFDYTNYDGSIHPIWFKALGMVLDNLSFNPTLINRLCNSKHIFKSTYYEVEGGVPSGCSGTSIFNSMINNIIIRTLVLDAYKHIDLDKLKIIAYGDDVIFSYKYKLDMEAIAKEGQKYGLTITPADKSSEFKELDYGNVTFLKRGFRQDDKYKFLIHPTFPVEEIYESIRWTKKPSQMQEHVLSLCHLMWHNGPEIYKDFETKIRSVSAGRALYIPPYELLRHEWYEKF

Row | SMILES | EC50 (Human rhinovirus 1B) [µM] | EC50 [2] [µM] | IC50 [3] [µM] | IC50 (Dengue viral polymerase) [µM] | IC50 (NS5B-BK (Delta-21)) [µM] | also measured
1 | C#C[C@]1(O)[C@H](n2cnc3c(N)ncnc32)O[C@](F)(CO)[C@H]1O [Compound 1, (2S,3S,4R,5R)-5-(6-amino-9H-purin-9-yl)-4-ethynyl-2-fluoro-2-(hydroxymethyl)tetrahydrofuran-3,4-diol] | < 3 | < 3 |  |  |  | EC50 (Human rhinovirus 75): < 3 µM; EC50 (EV71): < 3 µM; EC50 (CVB3): < 3 µM; EC50 (Zika virus): < 3 µM; EC50 (Human rhinovirus 16): < 3 µM; EC50 [1]: < 3 µM; EC50 (Human rhinovirus 14): < 3 µM
2 | C#C[C@]1(O)[C@H](n2cc(F)c3c(N)ncnc32)O[C@](F)(CO)[C@H]1O [Compound 7, (2S,3S,4R,5R)-5-(4-amino-5-fluoro-7H-pyrrolo[2,3-d]pyrimidin-7-yl)-4-ethynyl-2-fluoro-2-(hydroxymethyl)tetrahydrofuran-3,4-diol] | < 3 | < 3 |  |  |  | EC50 (EV71): < 3 µM
3 | C[C@]1(O)[C@H](n2cnc3c(N)ncnc32)O[C@](F)(CO)[C@H]1O [Compound 13, (2S,3S,4R,5R)-5-(6-amino-9H-purin-9-yl)-2-fluoro-2-(hydroxymethyl)-4-methyltetrahydrofuran-3,4-diol] | 3 to 30 | > 100 |  |  |  | EC50 [1]: 3 to 30 µM
4 | C[C@]1(F)[C@H](n2cnc3c(N)nc(N)nc32)O[C@](F)(CO)[C@H]1O [Compound 15, (2S,3S,4R,5R)-5-(2,6-diamino-9H-purin-9-yl)-2,4-difluoro-2-(hydroxymethyl)-4-methyltetrahydrofuran-3-ol] | 30 to 100 | > 100 |  |  |  | EC50 [1]: > 100 µM
5 | C=C=C[C@@]1(O)[C@H](O)[C@@H](COP(=O)(O)OP(=O)(O)OP(=O)(O)O)O[C@H]1n1cnc2c(N)ncnc21 [Compound 25] |  |  | 3 to 30 | 3 to 30 | < 3 | 
6 | C#C[C@@]1(O)[C@H](O)[C@@H](CO)O[C@H]1c1ccc2c(N)ncnn12 [Compound 26, (2S,3R,4R,5R)-2-(4-aminopyrrolo[2,1-f][1,2,4]triazin-7-yl)-3-ethynyl-5-(hydroxymethyl)tetrahydrofuran-3,4-diol] | < 3 | < 3 |  |  |  | EC50 (EV71): < 3 µM
7 | C#C[C@@]1(O)[C@H](O)[C@@H](COP(=O)(O)OP(=O)(O)OP(=O)(O)O)O[C@H]1n1cnc2c(=O)[nH]cnc21 [Compound 35] |  |  | > 100 | < 3 | < 3 | 
8 | C#C[C@]1(OC(=O)C(C)C)[C@H](n2cnc3c(N)ncnc32)O[C@](F)(COC(=O)C(C)C)[C@H]1OC(=O)C(C)C [Compound 43, (2S,3S,4R,5R)-5-(6-amino-9H-purin-9-yl)-4-ethynyl-2-fluoro-2-((isobutyryloxy)methyl)tetrahydrofuran-3,4-diylbis(2-methylpropanoate)] | < 3 | < 3 |  |  |  | EC50 (EV71): < 3 µM
9 | C#C[C@]1(O)[C@H](n2cc(C#N)c3c(N)ncnc32)O[C@](F)(COP(=O)(O)OP(=O)(O)OP(=O)(O)O)[C@H]1O [Compound 45] |  |  | < 3 | < 3 | < 3 | 
10 | C#C[C@]1(O)[C@H](n2cc(C(N)=O)c3c(N)ncnc32)O[C@](F)(COP(=O)(O)OP(=O)(O)OP(=O)(O)O)[C@H]1O [Compound 50] |  |  | < 3 | < 3 | 3 to 30 | 
11 | C#C[C@]1(O)[C@H](n2cc(F)c3c(N)ncnc32)O[C@](F)(COP(=O)(O)OP(=O)(O)OP(=O)(O)O)[C@H]1O [Compound 51] |  |  | < 3 | < 3 | < 3 | 
12 | C#C[C@@]1(O)[C@H](O)[C@@H](COP(=O)(O)OP(=O)(O)OP(=O)(O)O)O[C@H]1c1ccc2c(N)ncnn12 [Compound 52] |  |  | < 3 | < 3 | < 3 | 
13 | C#C[C@@]1(O)[C@H](O)[C@@H](COP(=O)(O)OP(=O)(O)OP(=O)(O)O)O[C@H]1c1cnc2c(N)ncnn12 [Compound 53] |  |  | < 3 | 3 to 30 | < 3 | 
14 | C#C[C@@]1(F)[C@H](O)[C@@H](COP(=O)(O)OP(=O)(O)OP(=O)(O)O)O[C@H]1c1cnc2c(N)ncnn12 [Compound 54] |  |  | 30 to 100 | 30 to 100 | < 3 | 
15 | C#C[C@]1(O)[C@H](n2cnc3c(=O)[nH]cnc32)O[C@](F)(COP(=O)(O)OP(=O)(O)OP(=O)(O)O)[C@H]1O [Compound 56] |  |  | < 3 | 3 to 30 | < 3 | 
16 | C#C[C@]1(O)[C@H](n2cnc3c(N)nc(F)nc32)O[C@](F)(COP(=O)(O)OP(=O)(O)OP(=O)(O)O)[C@H]1O [Compound 57] |  |  | < 3 | < 3 | < 3 | 
17 | C#C[C@@]1(O)[C@H](O)[C@@H](COP(=O)(O)OP(=O)(O)OP(=O)(O)O)O[C@H]1n1cc(F)c2c(N)ncnc21 [Compound 58] |  |  | < 3 | < 3 | < 3 | 
